Drawing on PMC5713474, “Green route to synthesis of valuable chemical 6-hydroxynicotine from nicotine in tobacco wastes using genetically engineered Agrobacterium tumefaciens S33” (Biotechnology for Biofuels, 2017), this text covers Km for one compound.

This assay concerns T1, Hno (6-hydroxynicotine oxidase), recombinant His-tagged.
T1 construct: N-terminal His tag (pETDuet-1), E. coli BL21 (DE3); FAD-containing; about 50 kDa on SDS-PAGE
In words: UV-visible spectrophotometry at […] nm (6-hydroxypseudooxynicotine formation). It counts as biochemical, Agrobacterium tumefaciens. The note with it: 37 °C, pH 9.2, 100 mM glycine-NaOH buffer; O2 as electron acceptor; read-out: apparent K m.

On to `CN1CCC[C@H]1c1ccc(O)nc1` [6-hydroxynicotine], for which the Km stood at 67 ± 1 µM.
